pEC50: −log10 of the molar value.
Test: Activation of p75NTR in mouse hippocampal neurons assessed as increase in cell survival after 48 hrs by MTT assay

CCC(C)C(N)C(=O)NCCN1CCOCC1 (stereo unspecified)
pEC50: 7.70
